Consider five molecules from US12729194B2, “Compounds for the treatment of human immunodeficiency virus” (priority 2019, dated 2026).

Molecules are shown by their SMILES. Bounds are passed on as bounds.

The test system of test [1] is HIV-1 with JR-FL S375W Env. The test is classed as cell-based. Conditions: Cf2Th-CD4/CCR5 target cells, 48 hours, luciferase; read-out: 50% inhibitory concentration (IC50), JR-FL S375W.
The subject of another test is HIV-1 with HIV-1AD8 Env. Description: microbe, parasite or virus in culture. Conditions: for IC50: Human immunodeficiency virus 1, Cf2Th-CD4/CCR5 target cells, 48 hours, luciferase, means and standard errors of four experiments, read-out: 50% inhibitory concentration (IC50), AD8; for Potency of inhibition of HIV-1 infection (in words): Table 1 HIV-1 Envs. It counts as cell-based.

For test [2], the system named is envelope glycoproteins of the amphotropic murine leukemia virus (AMLV). Description: microbe, parasite or virus in culture. Particulars: Cf2Th-CD4/CCR5 target cells, 48 hours, luciferase, specificity control, read-out: 50% inhibitory concentration (IC50), AMLV. The test is classed as cell-based.
The next test relates to HIV-1 with BG505 Env. Description: microbe, parasite or virus in culture. The test is classed as cell-based. Particulars: Human immunodeficiency virus 1; Cf2Th-CD4/CCR5 target cells, 48 hours, luciferase; means and standard errors of four experiments; read-out: 50% inhibitory concentration (IC50), BG505.
The subject of test [3] is HIV-1 with HIV-1JR-FL Env. Kind of test: microbe, parasite or virus in culture. The test is classed as cell-based. Conditions: Human immunodeficiency virus 1; Cf2Th-CD4/CCR5 target cells, 48 hours, luciferase; means and standard errors of four experiments; read-out: 50% inhibitory concentration (IC50), JR-FL.
Test [4] deals with HIV-1AD8 Env on VLPs. Description: Reversibility of compound effects on VLP Env conformation (19b antibody recognition after washing). Particulars: for Durability / reversibility of Env conformational effects (in words): after washing. The method, then:
(§1) Characterization of VLP-associated Env: To prepare VLPs with HIV-1AD8 Env, 150-mm dishes of 30-40% confluent A549-Gag/Env cells were seeded and, on the following day, treated with 2 μg/ml doxycycline. Approximately 72 hours after induction, cell supernatants were harvested and cleared by low-speed centrifugation (500×g for 15 minutes at 4° C.) and 0.45-μ filtration. VLPs were pelleted by centrifugation at 100,000×g for one hour at 4° C. The resuspended VLP preparation was clarified by low-speed centrifugation. BMS-806 and compounds described herein were added to the clarified VLP-containing suspensions. In some cases, the VLP-compound mixtures were irradiated with a 100-watt, 365-nm ultraviolet (UV) lamp for 10 minutes at room temperature. For all UV studies, exposure of the samples to visible light was minimized.
For studies of the reversibility of effects, the compounds were added to the VLPs and mixed for several seconds at room temperature. Then the VLPs were pelleted (20,000×g for 30 minutes at 4° C.) twice, washing with 1.5 ml PBS with 2% DMSO. The pelleted VLPs were resuspended in 1 ml PBS with 2% DMSO and incubated at room temperature for various lengths of time (20 minutes—3 weeks). Control VLPs were incubated in the continued presence of the compounds at room temperature for the same length of time. Then the VLPs were pelleted (20,000×g for 30 minutes at 4° C.) and the pellet incubated with 1.5% Triton X-100 for 30 minutes at 4° C. The VLP lysates were centrifuged (20,000×g for 30 minutes at 4° C.) and the supernatants were incubated with antibodies (10 μg/ml) in a 50-μl volume with 25 mg/ml of Protein A-Sepharose beads for one hour at 4° C. The beads were pelleted (1000 rpm for 1 minute at room temperature) and washed three times with 1 ml wash buffer with 1% Triton X-100. The beads were suspended in NuPAGE LDS Sample Buffer (ThermoFisher), boiled and analyzed by Western blot, as described above.
The BMS-806-induced decrease in binding of the 19b anti-V3 antibody can be used as an indicator of BMS-806-Env binding, allowing estimation of the stability of the Env-compound complex. BMS-806 and BMS-529 were incubated with the HIV-1AD8 Env on VLPs. The VLPs were then washed and incubated at room temperature for various lengths of time in a buffer with (+/+) or without (+/−) compound. After this incubation, Env conformation was assessed using the 19b anti-V3 antibody, the 2G12 antibody (the binding of which is not affected by BMS-806), and a negative control human immunoglobulin (hIgG) preparation. 19b recognition of Env in the washed samples (+/−) was compared with those in the samples continuously incubated with the compound (+/+) and the untreated samples (−) (FIG. 4). […] Despite this slow rate of dissociation of compounds described herein from Env, the binding and the consequent effects of these compounds on Env conformation appear to be reversible.

For the next test, the system named is VLP HIV-1AD8 Env. Kind of test: Antibody recognition of VLP-associated Env. Particulars: compound plus UV irradiation. On the procedure: as §1
For studies of the binding of ligands (antibodies, CD4-Ig and C34-Ig) to detergent-solubilized VLP Env, VLPs prepared as described above were pelleted (20,000×g for 30 minutes at 4° C.). The pellet was incubated with 1.5% Triton X-100 for 30 minutes at 4° C. The VLP lysates were centrifuged (20,000×g for 30 minutes at 4° C.) and the supernatants were incubated with ligands (10 μg/ml) in a 50-μl volume with 25 mg/ml of Protein A-Sepharose beads for one hour at 4° C. The beads were pelleted (1000 rpm for 1 minute at room temperature), washed three times with 1 ml wash buffer with 1% Triton X-100, suspended in LDS Sample Buffer and analyzed by Western blot, as described above.
In a second assay format, the effect of the compounds was analyzed on the binding of antibodies to Env on intact VLPs, in the absence of detergent. In this case, VLPs in A549-Gag/Env supernatants, clarified as described above, were pelleted at 100,000×g for one hour at 4° C. The pellet was resuspended in PBS and the VLPs pelleted at 20,000×g for 30 minutes at 4° C. The VLPs were resuspended in PBS and incubated with antibodies (10 μg/ml) in a 100-μl volume for one hour at 4° C. The VLPs were then pelleted (20,000×g for 30 minutes at 4° C.) and washed with PBS three times. The VLP pellet was then solubilized in 1.5% Triton X-100 for 30 minutes at 4° C., after which the VLP lysates were clarified by centrifugation at 20,000×g for 30 minutes at 4° C. The supernatants were incubated with 50 μl of Protein A-Sepharose beads for one hour at 4° C. The beads were pelleted (1000 rpm for 1 minute at room temperature), washed three times with 1 ml wash buffer with 1% Triton X-100, suspended in LDS Sample Buffer, and analyzed by Western blot, as described above.

For test [5], the system named is HIV-1AD8 Env on VLPs. Kind of test: Shedding of gp120 from VLP Env. Conditions: 4° C. and 37° C., 4 days, no detergent. On the procedure: Shedding of gp120 from VLP Env: The effect of compounds on the spontaneous shedding of gp120 from VLP Env was evaluated. VLPs with the wild-type HIV-1AD8 Env were prepared from the supernatants of A549-Gag/Env cells, as described above. The VLPs were suspended in PBS, to which was added either DMSO or a compound described herein. An aliquot of the VLP suspension in PBS/DMSO was processed as described below to serve as a Day 0 control. The VLP suspensions were incubated for 4 days at 4° C., room temperature or 37° C. (with gentle rocking). Then the VLPs were pelleted (100,000×g for 30 min at 4° C.). The pellets and supernatants were boiled in LDS sample buffer and analyzed by Western blotting with either 1:2000 goat anti-gp120 polyclonal antibody (ThermoFisher) and HRP-conjugated rabbit anti-goat IgG antibody, or with 1:5000 rabbit anti-Gag p55/p24/p17 antibody (Abcam) and HRP-conjugated goat anti-rabbit IgG antibody (Abcam).

Turning to `COc1ccc(-c2ccc(CNC(=O)c3ccc(C4(C(F)(F)F)N=N4)cc3)o2)c2[nH]cc(C(=O)C(=O)N3CCN(C(=O)c4ccccc4)CC3)c12` [AEG-II-159], the IC50 in test [1] was above 100 nM; with HIV-1 with HIV-1AD8 Env, 0.2 nM; in test [2] it was above 100 nM; with HIV-1 with BG505 Env, 0.8 nM; in test [3], 1.6 nM. In addition, the “Durability / reversibility of Env conformational effects (in words)” value in the test on HIV-1AD8 Env on VLPs [4] is “at least three weeks”.

With `COc1ccc(-c2ccc(CNC(=O)c3ccccc3)o2)c2[nH]cc(C(=O)C(=O)N3CCN(C(=O)c4ccccc4)CC3)c12` [AEG-III-032], the IC50 in test [1] was above 100 nM; with HIV-1 with HIV-1AD8 Env it was 0.36 nM; in test [2], above 100 nM; in the test on HIV-1 with BG505 Env, 1.5 nM; in test [3], 0.6 nM. For the same molecule, the “Potency of inhibition of HIV-1 infection (in words)” value in the test on HIV-1 with HIV-1AD8 Env is “potencies comparable to that of BMS-806”.

Take `O=C(Nc1cccc2c(C(=O)C(=O)N3CCN(C(=O)c4ccccc4)CC3)c[nH]c12)c1ccc(C2(C(F)(F)F)N=N2)cc1` [AEG-III-087]: the IC50 in test [1] is above 100 nM; with HIV-1 with HIV-1AD8 Env, 0.06 nM; in test [2], above 100 nM; in the test on HIV-1 with BG505 Env it was 1.9 nM; in test [3], 0.1 nM. Further, the “VLP Env recognition by poorly neutralizing antibodies two weeks after treatment” value in the test with VLP HIV-1AD8 Env (washed, two weeks without compound) is “lowered Env recognition by poorly neutralizing antibodies”. The “VLP Env recognition by bNAbs two weeks after treatment” value in the test with VLP HIV-1AD8 Env (PG9, PGT145, PGT151, 35022, 2F5, 4E10, 10E8) is “this increase was not seen”. Also, in the test with HIV-1AD8 Env on VLPs [5], the “Spontaneous shedding of gp120 into the VLP supernatant” value was “decreased the shedding of gp120”.

Regarding `O=C(Nc1cccc2c(C(=O)C(=O)N3CCN(C(=O)c4ccccc4)CC3)c[nH]c12)c1ccccc1` [AEG-III-096], the IC50 in test [1] was above 100 nM; in the test with HIV-1 with HIV-1AD8 Env, 2.4 nM; in test [2] it was above 100 nM; in test [3] it was 0.9 nM. Also, the “Potency of inhibition of HIV-1 infection (in words)” value in the test with HIV-1 with HIV-1AD8 Env is listed as “potencies comparable to that of BMS-806”. Moreover, in the test with HIV-1AD8 Env on VLPs [4], the “Durability / reversibility of Env conformational effects (in words)” value was “much faster reversibility”.

For the molecule `COc1cnc(-n2cnc(C)n2)c2[nH]cc(C(=O)C(=O)N3CCN(C(=O)c4ccccc4)CC3)c12` [BMS-529, reference compound], in the test with HIV-1AD8 Env on VLPs [4] (VLPs in PBS with 2% DMSO, room temperature), the “Time until conformational effects on Env are reversed after washing” value lay in the range of 2 to 4 days. In addition, the “Conformational effect on 19b binding after washing” value in the test on HIV-1AD8 Env on VLPs [4] (twenty-four hours after washing, room temperature) is on record as “still apparent”.
